# According to patent publication US6784201B2, “Benzothiepines having activity as inhibitors of ileal bile acid transport and taurocholate uptake” (G.D. Searle & Company, priority 1994, dated 2004):
# Biological target: T1, human IBAT (Homo sapiens, UniProt Q12908)
# T1 construct: expressed in transfected cells; host or cells: Baby hamster kidney (BHK) cells, clone H14
# T1 sequence (Q12908 1-348): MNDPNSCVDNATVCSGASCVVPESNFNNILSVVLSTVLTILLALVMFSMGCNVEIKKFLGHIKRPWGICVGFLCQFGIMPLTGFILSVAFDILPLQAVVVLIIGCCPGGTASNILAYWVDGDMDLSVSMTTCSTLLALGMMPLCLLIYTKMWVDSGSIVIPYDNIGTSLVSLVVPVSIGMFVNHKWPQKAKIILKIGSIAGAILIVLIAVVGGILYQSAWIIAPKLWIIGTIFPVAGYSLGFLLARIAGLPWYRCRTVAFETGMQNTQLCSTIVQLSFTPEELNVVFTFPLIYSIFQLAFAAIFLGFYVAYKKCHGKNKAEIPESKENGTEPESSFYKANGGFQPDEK
# Assay: In vitro assay of IBAT-mediated uptake of [14C]-taurocholate (TC) in H14 cells
# Assay type: cell-based
# Settings: read-out: Human TC IC50
# Experimental: In Vitro Assay of Compounds that Inhibit IBAT-Mediated Uptake of [^14C]-Taurocholate (TC) in H14 Cells
# Baby hamster kidney cells (BHK) transfected with the cDNA of human IBAT (H14 cells) are seeded at 60,000 cells/well in 96 well Top-Count tissue culture plates for assays run within in 24 hours of seeding, 30,000 cells/well for assays run within 48 hours, and 10,000 cells/well for assays run within 72 hours.
# On the day of assay, the cell monolayer is gently washed once with 100 μl assay buffer (Dulbecco's Modified Eagle's medium with 4.5 g/L glucose+0.2% (w/v) fatty acid free bovine serum albumin-(FAF)BSA). To each well 50 μl of a two-fold concentrate of test compound in assay buffer is added along with 50 μl of 6 μM [^14C]-taurocholate in assay buffer (final concentration of 3 μM [^14C]-taurocholate). The cell culture plates are incubated 2 hours at 37° C. prior to gently washing each well twice with 100 μl 4° C. Dulbecco's phosphate-buffered saline (PBS) containing 0.2% (w/v) (FAF)BSA. The wells are then gently washed once with 100 μl 4° C. PBS without (FAF)BSA. To each 200 μl of liquid scintillation counting fluid is added, the plates are heat sealed and shaken for 30 minutes at room temperature prior to measuring the amount of radioactivity in each well on a Packard Top-Count instrument.
row,SMILES,IC50 [nM]
1,CCCCC1(CCCC)CS(=O)(=O)c2ccc(N(C)C)cc2C(c2cccc(OCCOCCOCC[N+](C)(C)CCN(C)P(C)(=O)c3ccccc3)c2)C1O (stereo not drawn) [Example 1024],2
2,CCCCC1(CCCC)CS(=O)(=O)c2ccc(N(C)C)cc2C(c2ccc(OCc3cccc(C[N+](CC)(CC)CC)c3)c(F)c2)C1O (stereo not drawn) [Example 1025],2
3,CCCCC1(CCCC)CS(=O)(=O)c2ccc(N(C)C)cc2C(c2cccc(OCCOCCOCC[n+]3ccc(C(C)C)cc3)c2)C1O (stereo not drawn) [Example 1026],2
4,CCCCC1(CCCC)CS(=O)(=O)c2ccc(N(C)C)cc2C(c2cccc(OCCOCCOCC[n+]3ccc(C(C)C)cc3)c2)C1O (stereo not drawn) [Example 1027],2
5,CCCCC1(CCCC)CS(=O)(=O)c2ccc(N(C)C)cc2C(c2cccc(OCCOCCOCC[n+]3ccc(C(=O)O)cc3)c2)C1O (stereo not drawn) [Example 1028],2
6,CCCCC1(CCCC)CS(=O)(=O)c2ccc(N(C)C)cc2C(c2cccc(OCCOCCOCC[N+]3(C)CCC(C(=O)c4ccccc4)CC3)c2)C1O (stereo not drawn) [Example 1029],2
7,CCCCC1(CCCC)CS(=O)(=O)c2ccc(N(C)C)cc2C(c2cccc(OCCOCCOCC[n+]3cc4ccccn4c3)c2)C1O (stereo not drawn) [Example 1030],2
8,CCCCC1(CCCC)CS(=O)(=O)c2ccc(N(C)C)cc2C(c2ccc(OCCCCOCCCC[N+](CC)(CC)CC)c(F)c2)C1O (stereo not drawn) [Example 1031],2
9,CCCCC1(CCCC)CS(=O)(=O)c2ccc(N(C)C)cc2C(c2cccc(OCCCCC[N+](CC)(CC)CC)c2)C1O (stereo not drawn) [Example 1032],2
10,CCCCC1(CCCC)CS(=O)(=O)c2ccc(N(C)C)cc2C(c2ccc(OCCOCCOCC[N+]3(C)CCN(C)CC3)c(F)c2)C1O (stereo not drawn) [Example 1033],2
11,CCCCC1(CCCC)CS(=O)(=O)c2ccc(N(C)C)cc2C(c2cccc(OCCOCCOCC[n+]3cccc4ccc5ccccc5c43)c2)C1O (stereo not drawn) [Example 1034],2
12,CCCCC1(CCCC)CS(=O)(=O)c2ccc(N(C)C)cc2C(c2cccc(OCCOCCOCC[N+](C)(C)CCN(CC)P(C)(=O)c3ccccc3)c2)C1O (stereo not drawn) [Example 1035],2
13,CCCCC1(CCCC)CS(=O)(=O)c2ccc(N(C)C)cc2C(c2ccc(O)cc2)C1O (stereo not drawn) [Example 1037],2.2
14,CCCCC1(CCCC)CS(=O)(=O)c2ccc(N(C)C)cc2C(c2cccc(OCC[N+](C)(C)C)c2)C1O (stereo not drawn) [Example 1038],2.5
15,CCCCC1(CCCC)CS(=O)(=O)c2ccc(N(C)C)cc2C(c2ccccc2)C1O (stereo not drawn) [Example 1039],2.6
16,CCCCC1(CCCC)CS(=O)(=O)c2ccc(N(C)C)cc2C(c2ccc(OCCCCOCCCC[N+](CC)(CC)CC)c(F)c2)C1O (stereo not drawn) [Example 1040],3
17,CCCCC1(CCCC)CS(=O)(=O)c2ccc(N(C)C)cc2C(c2cccc(OCCOCCOCC[n+]3ccnc4ccccc43)c2)C1O (stereo not drawn) [Example 1041],3
18,C=CC(=O)Nc1cccc(C2c3cc(N(C)C)ccc3S(=O)(=O)CC(CCCC)(CCCC)C2O)c1 (stereo not drawn) [Example 1043],3

row,SMILES,IC50 [nM]
1,CCCCC1(CCCC)CS(=O)(=O)c2ccc(N(C)C)cc2C(c2ccc(OCCOCC[N+](CC)(CC)CC)c(F)c2)C1O (stereo not drawn) [Example 1044],3
2,CCCCC1(CCCC)CS(=O)(=O)c2ccc(N(C)C)cc2C(c2ccc(OCCCCCCCC[N+](CC)(CC)CC)c(F)c2)C1O (stereo not drawn) [Example 1045],3
3,CCCCC1(CCCC)CS(=O)(=O)c2ccc(N(C)C)cc2C(c2cccc(N)c2)C1O (stereo not drawn) [Example 1046],3
4,CCCCC1(CCCC)CS(=O)(=O)c2ccc(N(C)C)cc2C(c2ccc(OCCOCCOCC[N+](CC)(CC)CC)cc2)C1O (stereo not drawn) [Example 1048],3
5,CCCCC1(CCCC)CS(=O)(=O)c2ccc(N(C)C)cc2C(c2ccc(OCCOCC[n+]3ccccc3)c(F)c2)C1O (stereo not drawn) [Example 1049],3
6,CCCCC1(CCCC)CS(=O)(=O)c2ccc(N(C)C)cc2C(c2cccc(OCCOCCOCC[N+]3(C)CCN(P(C)(=O)c4ccccc4)CC3)c2)C1O (stereo not drawn) [Example 1050],3
7,CCCCC1(CCCC)CS(=O)(=O)c2ccc(N(C)C)cc2C(c2ccc(OCc3cc[n+](C)cc3)c(F)c2)C1O (stereo not drawn) [Example 1051],3
8,CCCCC1(CCCC)CS(=O)(=O)c2ccc(N(C)C)cc2C(c2cccc(OCCOCCOCC[n+]3cc4ccccc4cc3C)c2)C1O (stereo not drawn) [Example 1052],3
9,CCCCC1(CCCC)CS(=O)(=O)c2ccc(N(C)C)cc2C(c2ccc(OCCC[n+]3ccc(N(C)C)cc3)c(F)c2)C1O (stereo not drawn) [Example 1053],3
10,CCCCC1(CCCC)CS(=O)(=O)c2ccc(N(C)C)cc2C(c2cccc(OCCOCCOCC[n+]3ccc4ccccc4c3)c2)C1O (stereo not drawn) [Example 1054],3
11,CCCCC1(CCCC)CS(=O)(=O)c2ccc(N(C)C)cc2C(c2ccc(OCCOCCOCC[N+]3(C)CCCN(C)CCN(C)CCCN(C)CC3)cc2)C1O (stereo not drawn) [Example 1055],3
12,CCCCC1(CCCC)CS(=O)(=O)c2ccc(N(C)C)cc2C(c2cccc(OCCOCCOCC[n+]3ccc4c(c3)CCCCC4)c2)C1O (stereo not drawn) [Example 1056],3
13,CCCCC1(CCCC)CS(=O)(=O)c2ccc(N(C)C)cc2C(c2cccc(OCCOCCOCC[n+]3ccncc3)c2)C1O (stereo not drawn) [Example 1057],3
14,CCCCC1(CCCC)CS(=O)(=O)c2ccc(N(C)C)cc2C(c2cccc(OCCOCCOCC[N+](CC)(CC)CCN(C)C(=O)c3ccccc3)c2)C1O (stereo not drawn) [Example 1058],3
15,CCCCC1(CCCC)CS(=O)(=O)c2ccc(N(C)C)cc2C(c2ccc(OCCOCC[N+]3(CC)CCCCC3)c(F)c2)C1O (stereo not drawn) [Example 1059],3
16,CCCCC1(CC)CS(=O)(=O)c2ccc(NC)cc2C(c2ccc(OC)c(F)c2)C1O (stereo not drawn) [Example 1060],3.6
17,CCCCC1(CCCC)CS(=O)(=O)c2ccc(NC)cc2C(c2cccc(OCCOCCOCC[n+]3cc4ccccc4cn3)c2)C1O (stereo not drawn) [Example 1061],4

# Second part, the molecule after the results:
row,IC50 [nM],SMILES
1,0.4,CCCCC1(CCCC)CS(=O)(=O)c2ccc(N(C)C)cc2C(c2cccc(NC(=O)CCCC[N+](CC)(CC)CC)c2)C1O (stereo not drawn) [Example 1005]
2,1,CCCCC1(CCCC)CS(=O)(=O)c2ccc(N(C)C)cc2C(c2ccc(OCCOCC[N+]3(C)CCN(C)CC3)c(F)c2)C1O (stereo not drawn) [Example 1006]
3,1,CCCCC1(CCCC)CS(=O)(=O)c2ccc(N(C)C)cc2C(c2cccc(OCCOCCOCC[N+](CC)(CC)CC)c2)C1O (stereo not drawn) [Example 1007]
4,1,CCCCC1(CCCC)CS(=O)(=O)c2ccc(N(C)C)cc2C(c2cccc(OCCOCCOCC[n+]3ccccn3)c2)C1O (stereo not drawn) [Example 1008]
5,1,CCCCC1(CCCC)CS(=O)(=O)c2ccc(N(C)C)cc2C(c2cccc(OCCOCCOCC[n+]3ccc(N(C)C)cc3)c2)C1O (stereo not drawn) [Example 1009]
6,1,CCCCC1(CCCC)CS(=O)(=O)c2ccc(N(C)C)cc2C(c2ccc(OC)c(F)c2)C1O (stereo not drawn) [Example 1010]
7,1,CCCCC1(CCCC)CS(=O)(=O)c2ccc(N(C)C)cc2C(c2ccc(OCCCCC[N+](CC)(CC)CC)c(F)c2)C1O (stereo not drawn) [Example 1011]
8,1.5,CCCCC1(CCCC)CS(=O)(=O)c2c(OC)cc(N(C)C)cc2C(c2ccc(O)cc2)C1O (stereo not drawn) [Example 1012]
9,2,CCCCC1(CCCC)CS(=O)(=O)c2ccc(N(C)C)cc2C(c2ccc(OCCOCCOCC[N+](C)(C)C)c(F)c2)C1O (stereo not drawn) [Example 1013]
10,2,CCCCC1(CCCC)CS(=O)(=O)c2c(OC)cc(N(C)C)cc2C(c2ccc(OC)cc2)C1O (stereo not drawn) [Example 1014]
11,2,CCCCC1(CCCC)CS(=O)(=O)c2ccc(N(C)C)cc2C(c2ccc(OCCOCC[N+]3(C)CCCC3)c(F)c2)C1O (stereo not drawn) [Example 1015]
12,2,CCCCC1(CCCC)CS(=O)(=O)c2ccc(N(C)C)cc2C(c2cccc(OCCOCCOCC[N+](C)(C)CC(=O)O)c2)C1O (stereo not drawn) [Example 1016]
13,2,CCCCC1(CCCC)CS(=O)(=O)c2ccc(N(C)C)cc2C(c2cccc(OCCOCCOCC[n+]3ccc(C)c4ccccc43)c2)C1O (stereo not drawn) [Example 1017]
14,2,CCCCC1(CCCC)CS(=O)(=O)c2ccc(N(C)C)cc2C(c2cccc(OCCOCCOCC[N+](C)(C)CCN(C)C(=O)c3ccccc3)c2)C1O (stereo not drawn) [Example 1018]
15,2,CCCCC1(CCCC)CS(=O)(=O)c2ccc(N(C)C)cc2C(c2ccc(OCCCCOCCCC[n+]3ccccc3)c(F)c2)C1O (stereo not drawn) [Example 1019]
16,2,CCCCC1(CCCC)CS(=O)(=O)c2ccc(N(C)C)cc2C(c2ccc(OCc3cccc(C[N+](CC)(CC)CC)n3)c(F)c2)C1O (stereo not drawn) [Example 1020]
17,2,CCCCC1(CCCC)CS(=O)(=O)c2ccc(N(C)C)cc2C(c2cccc(OCCOCCOCC[N+]3(CCO)CCOCC3)c2)C1O (stereo not drawn) [Example 1021]
18,2,CCCCC1(CCCC)CS(=O)(=O)c2ccc(N(C)C)cc2C(c2cccc(OCCOCCOCC[N+](CC)(CC)CCO)c2)C1O (stereo not drawn) [Example 1022]
19,2,C=C(C)C(=O)OCC[N+](CC)(CC)CCOCCOCCOc1cccc(C2c3cc(N(C)C)ccc3S(=O)(=O)CC(CCCC)(CCCC)C2O)c1 (stereo not drawn) [Example 1023]
